Measurements reported in the supplement of paper PMC11451515.

Test system: NOMO1
Assay: cell viability relative to DMSO control; higher = less cytotoxic
Details: 48 h
How it was run: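 NOMO1 or SEM cells were plated at 500 cells/well and P12-Ichikawa cells at 1000 cells/well in 1536-well plates (5 μl), after each leukemia line had been adapted for at least four passages in each medium. Pin dosing delivered library compounds in DMSO at 11 threefold concentrations, 47 μM to 0.79 nM. CellTiter-Glo One luminescence was read after 48 h at 37°C. Viability is reported as a per-plate percentage of DMSO wells, with cell-free wells as background.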

[1] = HPLM + 10% dialyzed FBS, 0.000781 µM
[2] = HPLM + 10% dialyzed FBS, 0.00234 µM
[3] = HPLM + 10% dialyzed FBS, 0.00702 µM
[4] = HPLM + 10% dialyzed FBS, 0.0211 µM
[5] = HPLM + 10% dialyzed FBS, 0.0632 µM
[6] = HPLM + 10% dialyzed FBS, 0.19 µM
[7] = HPLM + 10% dialyzed FBS, 0.569 µM
[8] = HPLM + 10% dialyzed FBS, 1.71 µM
[9] = HPLM + 10% dialyzed FBS, 5.12 µM
[10] = HPLM + 10% dialyzed FBS, 15.4 µM
[11] = HPLM + 10% dialyzed FBS, 46.1 µM
[12] = RPMI 5 mM glucose + 10% FBS, 0.000781 µM
[13] = RPMI 5 mM glucose + 10% FBS, 0.00234 µM
[14] = RPMI 5 mM glucose + 10% FBS, 0.00702 µM
[15] = RPMI 5 mM glucose + 10% FBS, 0.0211 µM
[16] = RPMI 5 mM glucose + 10% FBS, 0.0632 µM
[17] = RPMI 5 mM glucose + 10% FBS, 0.19 µM
[18] = RPMI 5 mM glucose + 10% FBS, 0.569 µM
[19] = RPMI 5 mM glucose + 10% FBS, 1.71 µM
[20] = RPMI 5 mM glucose + 10% FBS, 5.12 µM
[21] = RPMI 5 mM glucose + 10% FBS, 15.4 µM
[22] = RPMI 5 mM glucose + 10% FBS, 46.1 µM
[23] = RPMI 5 mM glucose + 10% dialyzed FBS, 0.000781 µM
[24] = RPMI 5 mM glucose + 10% dialyzed FBS, 0.00234 µM
[25] = RPMI 5 mM glucose + 10% dialyzed FBS, 0.00702 µM
[26] = RPMI 5 mM glucose + 10% dialyzed FBS, 0.0211 µM
[27] = RPMI 5 mM glucose + 10% dialyzed FBS, 0.0632 µM
[28] = RPMI 5 mM glucose + 10% dialyzed FBS, 0.19 µM
[29] = RPMI 5 mM glucose + 10% dialyzed FBS, 0.569 µM
[30] = RPMI 5 mM glucose + 10% dialyzed FBS, 1.71 µM
[31] = RPMI 5 mM glucose + 10% dialyzed FBS, 5.12 µM
[32] = RPMI 5 mM glucose + 10% dialyzed FBS, 15.4 µM
[33] = RPMI 5 mM glucose + 10% dialyzed FBS, 46.1 µM

| SMILES | cell viability [1] [%] | cell viability [2] [%] | cell viability [3] [%] | cell viability [4] [%] | cell viability [5] [%] | cell viability [6] [%] | cell viability [7] [%] | cell viability [8] [%] | cell viability [9] [%] | cell viability [10] [%] | cell viability [11] [%] | cell viability [12] [%] | cell viability [13] [%] | cell viability [14] [%] | cell viability [15] [%] | cell viability [16] [%] | cell viability [17] [%] | cell viability [18] [%] | cell viability [19] [%] | cell viability [20] [%] | cell viability [21] [%] | cell viability [22] [%] | cell viability [23] [%] | cell viability [24] [%] | cell viability [25] [%] | cell viability [26] [%] | cell viability [27] [%] | cell viability [28] [%] | cell viability [29] [%] | cell viability [30] [%] | cell viability [31] [%] | cell viability [32] [%] | cell viability [33] [%] |
| --- | --- | --- | --- | --- | --- | --- | --- | --- | --- | --- | --- | --- | --- | --- | --- | --- | --- | --- | --- | --- | --- | --- | --- | --- | --- | --- | --- | --- | --- | --- | --- | --- | --- |
| C[C@H](Cc1ccc(O)c(O)c1)[C@@H](C)Cc1ccc(O)c(O)c1 | 130 | 119 | 118 | 117 | 126 | 133 | 134 | 132 | 42 | 99.6 | 18.4 | 141 | 114 | 112 | 122 | 117 | 109 | 119 | 114 | 111 | 104 | 57.5 | 119 | 121 | 124 | 107 | 104 | 114 | 113 | 111 | 57 | 94.1 | 27.9 |
| Oc1ccc([C@@H]2Oc3ccc(O)cc3[C@@H]3CCC[C@@H]32)cc1 | 92.1 | 93.1 | 95.1 | 102 | 98 | 89.3 | 90.5 | 94.2 | 79.3 | 62 | 31.8 | 93.3 | 105 | 97.5 | 88.1 | 87.3 | 100 | 99.9 | 89.7 | 81.8 | 77 | 28.8 | 93.8 | 92.1 | 97.7 | 90.7 | 90.8 | 94.1 | 90.7 | 87.4 | 83.2 | 63.7 | 25.6 |
| NC[C@H]1O[C@H](O[C@H]2[C@H](O)[C@@H](O[C@H]3O[C@H](CO)[C@@H](O)[C@H](N)[C@H]3O)[C@H](N)C[C@@H]2N)[C@H](N)C[C@@H]1O | 103 | 99.1 | 122 | 92.5 | 110 | 106 | 112 | 102 | 102 | 91.9 | 106 | 109 | 103 | 101 | 110 | 104 | 103 | 105 | 94.6 | 104 | 101 | 107 | 95.3 | 101 | 95.2 | 96 | 96.6 | 99.7 | 94.3 | 89.7 | 81.7 | 97.2 | 93.4 |
| CCOC(=O)[C@@H](N)CCC(=O)N[C@@H](CSCc1ccccc1)C(=O)N[C@@H](C(=O)OCC)c1ccccc1 | – | – | – | – | – | – | – | – | – | – | – | – | – | – | – | – | – | – | – | – | – | – | 128 | 116 | 123 | 130 | 133 | 136 | 121 | 133 | 137 | 139 | 98.9 |
